# Patent US8796457B2, “Compound useful for the treatment of degenerative and inflammatory diseases” (Galapagos NV, priority 2009, dated 2014)
# Where two headings read alike, the source gives them in different places.
# Assays:
# [1] = system: MMP13 levels in SW1353 cells; experiment: OSM/IL-1β signaling assay (MMP13); format: cell-based; settings: Homo sapiens, 25 ng/mL OSM and 1 ng/mL IL-1β, 48 hours, average ± standard error of the mean
# Description: 5% CO2. […] The data are expressed as the average EC50 from the assays±standard error of the mean.
# [2] = system: JAK1 dependent pathway (IFNα induced pSTAT1) in human whole blood; experiment: Whole blood assay, IFNα stimulation, Phospho-STAT1 ELISA; format: cell-based; settings: for IC50: Homo sapiens, 6 blood donors, ± SEM, read-out: pIC50 for inhibiting the INFα induced increase of pSTAT1 levels (converted)
# Method: The pH of the buffer was 7.3.
# Proteinase inhibitors were added to the buffer before use.
# The stock solution was stored at −20° C.
# Human blood was collected in heparinized tubes. The blood was divided in aliquots of 392 μL.
# The samples were incubated on ice for 15 min.
# The cellular extracts were thawed on ice. […] The strips were incubated overnight at 4° C.
# Absorbance was measured at 450 nm.
# [3] = system: JAK2-dependent pathway (GM-CSF stimulated STAT5 phosphorylation, CD14+ cells) in human whole blood; experiment: Whole blood assay, GM-CSF stimulation, Phospho-STAT5 FACS; format: cell-based; settings: mean of 3 healthy volunteers, read-out: pIC50 in the inhibition of STAT5 phosphorylation (converted)
# Method: A flow cytometry analysis was also performed to establish compound selectivity for JAK1 over JAK2, ex vivo using human whole blood.
# The increase in phosphorylation of STAT5 by GM-CSF in monocytes was measured using an anti phospho-STAT5 antibody by FACS.
# Remaining diluted Lyse/Fix buffer was discarded.
# 10 μg rhGM-CSF (AbCys S.A., Cat N°P300-03) was dissolved in 100 μl of PBS 0.1% BSA to obtain a 100 μg/ml stock solution. The stock solution was stored aliquoted at −80° C.
# Control-treated samples received DMSO without any test compound.
# Human blood was collected in heparinized tubes.
# 50,000 total events were counted and Phospho-STAT5 positive cells were measured after gating on CD14+ cells.
# [4] = system: collagen induced arthritis; experiment: Rat collagen induced arthritis (CIA) model; format: in vivo
# Method: Completed Freund's adjuvant (CFA) and incomplete Freund's adjuvant (IFA) were purchased from Difco. Bovine collagen type II (CII), lipopolysaccharide (LPS), and Enbrel were obtained from Chondrex (Isle d'Abeau, France); Sigma (P4252, L'Isle d'Abeau, France), Whyett (25 mg injectable syringe, France) Acros Organics (Palo Alto, Calif.), respectively. All other reagents used were of reagent grade and all solvents were of analytical grade.
# Dark Agouti rats (male, 7-8 weeks old) are obtained from Harlan Laboratories (Maison-Alfort, France). DBA/1J mice (male, 7 weeks old) were obtained from Centre d'Elevage et de Reproduction JANVIER (CERJ) (Laval, France). Rats and mice were kept on a 12 hours light/dark cycle (0700-1900). The temperature was maintained at 22° C., and food and water were provided ad libitum.
# One day before the experiment, CII solution (2 mg/mL) was prepared with 0.05 M acetic acid and stored at 4° C. Just before the immunization, equal volumes of adjuvant (IFA) and CII were mixed by a homogenizer in a pre-cooled glass bottle in an ice water bath. Extra adjuvant and prolonged homogenization might be required if an emulsion is not formed.
# Rat: 0.2 mL of the emulsion is injected intradermally at the base of the tail of each rat on day 1, a second booster intradermal injection (CII solution at 2 mg/mL in CFA 0.1 mL saline) is performed on day 9. This immunization method is modified from published methods (Sims N A et al., (2004) Targeting osteoclasts with zoledronic acid prevents bone destruction in collagen-induced arthritis, Arthritis Rheum. 50 2338-2346; Jou et al., 2005).
# The therapeutic effects of the test compounds were tested in the rat or mouse CIA model. Animals were randomly divided into equal groups and each group contained 10 animals. All rats are immunized on day 1 and boosted on day 9. All mice were immunized on day 1 and boosted on day 21. Therapeutic dosing lasted from day 16 to day 30. The negative control group was treated with vehicle (MC 0.5%) and the positive control group with Enbrel (10 mg/kg, 3× week., s.c.). A compound of interest was typically tested at 3 doses, e.g. 3, 10, 30 mg/kg, p.o.
# Arthritis was scored according the method of Khachigian 2006, Lin et al 2007 and Nishida et al. 2004). […]
# AUC of clinical score (AUC score): The area under the curve (AUC) from day 1 to day 14 was calculated for each individual rat. The AUC of each animal was divided by the average AUC obtained for the vehicle in the study from which the data on that animal was obtained and multiplied by 100 (i.e. the AUC was expressed as a percentage of the average vehicle AUC per study).
# Clinical score increase from day 1 to day 14 (End point score): The clinical score difference for each animal was divided by the average clinical score difference obtained for the vehicle in the study from which the data on that animal was obtained and multiplied by 100 (i.e. the difference was expressed as a percentage of the average clinical score difference for the vehicle per study).
# Post-mortem, a Larsen' score was derived for both hind paws of all rats by at least 2 scientists. The average of these scores was calculated to obtain one Larsen' score per rat. […]
smiles,measurement,setting,value
"CC1(C)CN(C(=O)c2ccc(-c3cccc4nc(NC(=O)C5CC5)nn34)cc2)C1 [Compound 1, Cyclopropanecarboxylic acid{5-[4-(3,3-dimethyl-azetidine-1-carbonyl)-phenyl]-[1,2,4]triazolo[1,5-a]pyridin-2-yl}-amide]",EC50,[1],4200 ± 2370 nM
same,IC50,"[2]; additional data analysis protocol (R2 > 0.8, hill slope < 3)",617 nM
same,IC50,[2]; human whole blood,479 nM
same,selectivity for the JAK1 pathway versus the JAK2 pathway,"[2]; IFNα pSTAT1 vs GM-CSF IL-8, human whole blood",28 fold
same,selectivity for the JAK1 pathway versus the JAK2 pathway,"[2]; additional data analysis protocol, IFNα pSTAT1 vs GM-CSF IL-8",17.6 fold
same,IC50,[3],4270 nM
same,dose from which significant improvement of paw swelling was seen,[4]; rat CIA,≥ 1 mg/kg
same,dose from which significant improvement of the AUC of the clinical score was seen,[4]; rat CIA,≥ 10 mg/kg
same,dose from which significant improvement of the Larsen' score was seen,[4]; rat CIA,≥ 30 mg/kg
same,dose from which significant improvement of the endpoint clinical score was seen,[4]; rat CIA,≥ 1 mg/kg
same,efficacy in the rat CIA study,"[4]; rat, 30, 10, 3, and 1 mg/kg",efficacious in all readouts
